# Data as given in patent US20250339517A1, “LIPID N[…]” (priority 2022, published 2025).
# Test system: F9A6-CD4 T cell hybridoma overlaid on M. tuberculosis-infected macrophages
# Experiment: Ex vivo MTB Ag85B antigen presentation to CD4 T cells (IL-2 ELISA)
# Format: cell-based, human
# Conditions: concurrent activation; decrease for MO-TDM compared to TDM and MO
# Experimental: Briefly, M. tuberculosis-infected MΦs were washed after a 4-hour infection and overlaid with the F9A6-CD4 T cell hybridoma which recognizes an Ag85B epitope in the context of human HLA-DR1. IL-2 secreted from hybridoma T cells or other cytokines secreted from M. tuberculosis-infected MΦs were determined using a sandwich ELISA kit (Biolegend).
# By inhibiting the phagosome lysosome fusion in macrophages, TDM not only protects the M. tuberculosis bacilli from intracellular killing but also reduces the priming of T cells due to reduced processing of Mycobacterial antigens in lysosomal compartments. Since increased killing of intracellular MTB in macrophages was observed when they were stimulated with a cubosomal MO-TDM (1 mol %) preparation, it indicated a possible increase in lysosmal processing of its antigens. […] An in vitro antigen presentation assay using a CD4 hybridoma T cell that recognizes a specific epitope of Ag85B was adopted to determine the priming of T cells by macrophages that were stimulated with MO, TDM and MO-TDM (1 mol %). Secreted levels of IL-2 by hybridoma T cells upon overlay to M. tuberculosis infected macrophages with and without stimulation with MO, TDM and MO-TDM (1 mol %) were monitored in a time dependent manner (FIG. 9).
substance,measurement,value
"trehalose 6,6′ dimycolate [TDM]","antigen presentation to T cells (secreted IL-2 levels), change from day 3 to day 5 post infection",decreased sharply
